From paper PMC5218480 (PLoS ONE, 2017)

Tested on: MV-4-11 cells
Experiment: Gene expression microarray analysis (Affymetrix PrimeView) and GSEA
Format: cell-based, human
Set-up: RFU PODN (11730768_x_at) / Fold change /veh PODN (11730768_x_at) / RFU LINC00158 (11744669_a_at) / Fold change /veh LINC00158 (11744669_a_at) / RFU DUSP10 (11751237_a_at) / Fold change /veh DUSP10 (11751237_a_at) / RFU ID3 (11757404_x_at) / Fold change /veh ID3 (11757404_x_at) / RFU PLEKHG5 (11737974_s_at) / Fold change /veh PLEKHG5 (11737974_s_at) / RFU LRRC4B (11730491_at) / Fold change /veh LRRC4B (11730491_at) / RFU GIMAP4 (11747438_a_at) / Fold change /veh GIMAP4 (11747438_a_at) / RFU KRT8 (11758183_x_at) / Fold change /veh KRT8 (11758183_x_at) / RFU CNN1 (11734310_a_at) / Fold change /veh CNN1 (11734310_a_at) / RFU VPS37D (11726825_at) / Fold change /veh VPS37D (11726825_at) / RFU C10orf10 (11716522_x_at) / Fold change /veh C10orf10 (11716522_x_at) / RFU KIR2DL2 /// KIR2DL4 /// KIR2DL5A /// KIR2DL5B /// KIR2DS1 /// KIR2DS2 /// KIR2DS3 /// KIR2DS4 /// KIR3DL3 /// KIR3DL3 /// KIR3DS1 (11738374_at) / Fold change /veh KIR2DL2 /// KIR2DL4 /// KIR2DL5A /// KIR2DL5B /// KIR2DS1 /// KIR2DS2 /// KIR2DS3 /// KIR2DS4 /// KIR3DL3 /// KIR3DL3 /// KIR3DS1 (11738374_at) / RFU C1QL1 (11718748_at) / Fold change /veh C1QL1 (11718748_at) / RFU TMPRSS4 (11747572_a_at) / Fold change /veh TMPRSS4 (11747572_a_at) / RFU HAMP (11756126_x_at) / Fold change /veh HAMP (11756126_x_at) / RFU RNFT2 (11725882_a_at) / Fold change /veh RNFT2 (11725882_a_at) / RFU NR4A2 (11747474_a_at) / Fold change /veh NR4A2 (11747474_a_at) / RFU ABCC12 (11746883_a_at) / Fold change /veh ABCC12 (11746883_a_at) / RFU TMEM136 (11760407_x_at) / Fold change /veh TMEM136 (11760407_x_at) / RFU CLDN22 /// WWC2 (11732394_at) / Fold change /veh CLDN22 /// WWC2 (11732394_at) / RFU HLA-DPB1 (11760878_x_at) / Fold change /veh HLA-DPB1 (11760878_x_at) / RFU SPINT1 (11716480_a_at) / Fold change /veh SPINT1 (11716480_a_at) / RFU GAP43 (11754022_s_at) / Fold change /veh GAP43 (11754022_s_at) / RFU A4GNT (11735810_at) / Fold change /veh A4GNT (11735810_at) / RFU PRB3 (11715151_x_at) / Fold change /veh PRB3 (11715151_x_at) / RFU TUBB4B (11761932_at) / Fold change /veh TUBB4B (11761932_at) / RFU CAPN14 (11732068_a_at) / Fold change /veh CAPN14 (11732068_a_at) / RFU TMCC2 (11721928_a_at) / Fold change /veh TMCC2 (11721928_a_at) / RFU IRGQ (11745062_a_at) / Fold change /veh IRGQ (11745062_a_at) / RFU FAM174B (11720279_a_at) / Fold change /veh FAM174B (11720279_a_at) / RFU TMPRSS4 (11748680_a_at) / Fold change /veh TMPRSS4 (11748680_a_at) / RFU FAM212B (11763350_a_at) / Fold change /veh FAM212B (11763350_a_at) / RFU PLEKHG5 (11743358_a_at) / Fold change /veh PLEKHG5 (11743358_a_at) / RFU ZSCAN30 (11745921_a_at) / Fold change /veh ZSCAN30 (11745921_a_at) / RFU CMKLR1 (11741424_a_at) / Fold change /veh CMKLR1 (11741424_a_at) / RFU LOC101060620 /// MAPK8IP1 (11723275_at) / Fold change /veh LOC101060620 /// MAPK8IP1 (11723275_at) / RFU SPTSSB (11747773_x_at) / Fold change /veh SPTSSB (11747773_x_at) / RFU PRSS12 (11739890_at) / Fold change /veh PRSS12 (11739890_at) / RFU BIN1 (11741810_x_at) / Fold change /veh BIN1 (11741810_x_at) / RFU WNT11 (11732464_a_at) / Fold change /veh WNT11 (11732464_a_at) / RFU C10orf10 (11716521_a_at) / Fold change /veh C10orf10 (11716521_a_at) / RFU C5orf56 (11738089_at) / Fold change /veh C5orf56 (11738089_at) / RFU CYB561 (11721691_x_at) / Fold change /veh CYB561 (11721691_x_at) / RFU ANKRD19P (11752326_a_at) / Fold change /veh ANKRD19P (11752326_a_at) / RFU OR2T12 /// OR2T33 /// OR2T8 (11738714_s_at) / Fold change /veh OR2T12 /// OR2T33 /// OR2T8 (11738714_s_at) / RFU VCAN (11748164_a_at) / Fold change /veh VCAN (11748164_a_at) / RFU JSRP1 (11732532_at) / Fold change /veh JSRP1 (11732532_at) / RFU KRTAP10-11 (11738290_x_at) / Fold change /veh KRTAP10-11 (11738290_x_at) / RFU MYO3A (11730013_a_at) / Fold change /veh MYO3A (11730013_a_at) / RFU EBF3 (11725865_a_at) / Fold change /veh EBF3 (11725865_a_at) / RFU CAMK2N1 (11719241_x_at) / Fold change /veh CAMK2N1 (11719241_x_at) / RFU C5orf56 (11738088_a_at) / Fold change /veh C5orf56 (11738088_a_at) / RFU OLFML3 (11715873_a_at) / Fold change /veh OLFML3 (11715873_a_at) / RFU LOC100653217 /// NTM (11731650_a_at) / Fold change /veh LOC100653217 /// NTM (11731650_a_at) / RFU MAPK11 (11762145_a_at) / Fold change /veh MAPK11 (11762145_a_at) / RFU FIZ1 (11724087_x_at) / Fold change /veh FIZ1 (11724087_x_at) / RFU OASL (11726364_x_at) / Fold change /veh OASL (11726364_x_at) / RFU SOX15 (11748057_x_at) / Fold change /veh SOX15 (11748057_x_at) / RFU CD79A (11719716_a_at) / Fold change /veh CD79A (11719716_a_at) / RFU HIST1H1D (11736915_at) / Fold change /veh HIST1H1D (11736915_at) / RFU CASKIN2 (11723855_a_at) / Fold change /veh CASKIN2 (11723855_a_at) / RFU LOC730098 (11760151_x_at) / Fold change /veh LOC730098 (11760151_x_at) / RFU OR4N2 (11742367_at) / Fold change /veh OR4N2 (11742367_at) / RFU PRRT2 (11749266_a_at) / Fold change /veh PRRT2 (11749266_a_at) / RFU SNX32 (11753110_a_at) / Fold change /veh SNX32 (11753110_a_at) / RFU CDHR5 (11726645_a_at) / Fold change /veh CDHR5 (11726645_a_at) / RFU RCAN1 (11760418_a_at) / Fold change /veh RCAN1 (11760418_a_at) / RFU FAM167A (11723789_a_at) / Fold change /veh FAM167A (11723789_a_at) / RFU FAM26E (11764081_at) / Fold change /veh FAM26E (11764081_at) / RFU ISYNA1 (11749810_s_at) / Fold change /veh ISYNA1 (11749810_s_at) / RFU ACY1 (11761880_at) / Fold change /veh ACY1 (11761880_at) / RFU 11764098_at / Fold change /veh 11764098_at / RFU SAMD14 (11745864_x_at) / Fold change /veh SAMD14 (11745864_x_at) / RFU NPB (11741838_a_at) / Fold change /veh NPB (11741838_a_at) / RFU TMPRSS6 (11731388_a_at) / Fold change /veh TMPRSS6 (11731388_a_at) / RFU KRTAP10-2 (11738614_at) / Fold change /veh KRTAP10-2 (11738614_at) / RFU ARHGAP8 /// PRR5-ARHGAP8 (11727945_x_at) / Fold change /veh ARHGAP8 /// PRR5-ARHGAP8 (11727945_x_at) / RFU KRTAP5-7 /// NADSYN1 (11734609_at) / Fold change /veh KRTAP5-7 /// NADSYN1 (11734609_at) / RFU RASL12 (11751679_a_at) / Fold change /veh RASL12 (11751679_a_at) / RFU CDKN2B (11736163_a_at) / Fold change /veh CDKN2B (11736163_a_at) / RFU PRF1 (11729649_at) / Fold change /veh PRF1 (11729649_at) / RFU, ZNF638 /// ZNF638-IT1 / Fold change vs veh, ZNF638 /// ZNF638-IT1 / RFU, PANK3 / Fold change vs veh, PANK3 / RFU, SH3YL1 / Fold change vs veh, SH3YL1 / RFU, ZEB2 / Fold change vs veh, ZEB2 / RFU, NRIP1 / Fold change vs veh, NRIP1 / RFU, PTTG1IP / Fold change vs veh, PTTG1IP / RFU, CAPN2 / Fold change vs veh, CAPN2 / RFU, MED14 / Fold change vs veh, MED14 / RFU, SNORA58 / Fold change vs veh, SNORA58 / RFU, C1orf63 / Fold change vs veh, C1orf63 / RFU, LRRFIP1 / Fold change vs veh, LRRFIP1 / RFU, NDUFAF7 / Fold change vs veh, NDUFAF7 / RFU, SLC12A2 / Fold change vs veh, SLC12A2 / RFU, IBTK / Fold change vs veh, IBTK / RFU, ESF1 / Fold change vs veh, ESF1 / Fold change vs veh, TMEM50B / RFU, TAOK1 / Fold change vs veh, TAOK1 / RFU, ACBD3 / Fold change vs veh, ACBD3 / RFU, TMA16 / Fold change vs veh, TMA16 / RFU, RWDD3 / Fold change vs veh, RWDD3 / RFU, BCAT1 / Fold change vs veh, BCAT1 / RFU, EDEM3 / Fold change vs veh, EDEM3 / RFU, TMEM33 / Fold change vs veh, TMEM33 / RFU, WDR75 / Fold change vs veh, WDR75 / RFU, AHCTF1 / Fold change vs veh, AHCTF1 / RFU, TFRC / Fold change vs veh, TFRC / RFU, ZDHHC17 / Fold change vs veh, ZDHHC17 / RFU, NOM1 / Fold change vs veh, NOM1 / RFU, ARL8B / Fold change vs veh, ARL8B / RFU, ZBTB11 / Fold change vs veh, ZBTB11 / RFU, TAMM41 / Fold change vs veh, TAMM41 / RFU, KIAA1704 /// LOC100996395 / Fold change vs veh, KIAA1704 /// LOC100996395 / RFU, ING1 / Fold change vs veh, ING1 / RFU, TRMT61B / Fold change vs veh, TRMT61B / RFU, FUBP3 / Fold change vs veh, FUBP3 / RFU, TP53 / Fold change vs veh, TP53 / RFU, TNKS2 / Fold change vs veh, TNKS2 / RFU, ZFP14 / Fold change vs veh, ZFP14 / RFU, ACTR2 / Fold change vs veh, ACTR2 / RFU, PPP3R1 / Fold change vs veh, PPP3R1 / RFU, PIK3R1 / Fold change vs veh, PIK3R1 / RFU, HNRNPA1 / Fold change vs veh, HNRNPA1 / RFU, RNF170 / Fold change vs veh, RNF170 / RFU, ZNF28 / Fold change vs veh, ZNF28 / RFU, RNGTT / Fold change vs veh, RNGTT / RFU, OGT / Fold change vs veh, OGT / RFU, BRD1 / Fold change vs veh, BRD1 / RFU, MARS / Fold change vs veh, MARS / RFU, ZNF655 / Fold change vs veh, ZNF655 / RFU, FAHD1 / Fold change vs veh, FAHD1 / RFU, BDP1 / Fold change vs veh, BDP1 / RFU, LRRCC1 / Fold change vs veh, LRRCC1 / RFU, ARID1A / Fold change vs veh, ARID1A / RFU, ZNF146 / Fold change vs veh, ZNF146 / RFU, ZNF330 / Fold change vs veh, ZNF330 / RFU, GPN3 / Fold change vs veh, GPN3 / RFU, C9orf123 / Fold change vs veh, C9orf123 / RFU, N4BP2L2 / Fold change vs veh, N4BP2L2 / RFU, ARFIP1 / Fold change vs veh, ARFIP1 / RFU, FAM179B / Fold change vs veh, FAM179B / RFU, BCL10 / Fold change vs veh, BCL10 / RFU, UHRF1BP1L / Fold change vs veh, UHRF1BP1L / RFU, BET1 / Fold change vs veh, BET1 / RFU, CNOT2 / Fold change vs veh, CNOT2 / RFU, ZNF268 / Fold change vs veh, ZNF268 / Fold change vs veh, ZNF507 / RFU, DGCR2 / Fold change vs veh, DGCR2 / RFU, WDSUB1 / Fold change vs veh, WDSUB1 / Fold change vs veh, HSP90B1 /// MIR3652 / RFU, ADSS / Fold change vs veh, ADSS / RFU, GK / Fold change vs veh, GK / RFU, ZNF148 / Fold change vs veh, ZNF148 / RFU, TAF9 / Fold change vs veh, TAF9 / RFU, SLC1A5 / Fold change vs veh, SLC1A5 / RFU, SLMO2 / Fold change vs veh, SLMO2 / RFU, ABCC4 / Fold change vs veh, ABCC4 / RFU, LOC101060439 /// RAP1B / Fold change vs veh, LOC101060439 /// RAP1B / RFU, RFX7 / Fold change vs veh, RFX7 / RFU, GTPBP10 / Fold change vs veh, GTPBP10 / RFU, CNEP1R1 / Fold change vs veh, CNEP1R1 / RFU, BIVM-ERCC5 /// ERCC5 / Fold change vs veh, BIVM-ERCC5 /// ERCC5 / RFU, ILF3 / Fold change vs veh, ILF3 / RFU 11762660_at / Fold change /veh 11762660_at / RFU VCAN (11757783_s_at) / Fold change /veh VCAN (11757783_s_at) / RFU DDX43 (11728927_at) / Fold change /veh DDX43 (11728927_at) / RFU KRT8 (11758188_x_at) / Fold change /veh KRT8 (11758188_x_at) / RFU NKD1 (11759106_at) / Fold change /veh NKD1 (11759106_at) / RFU SRD5A1 (11742802_a_at) / Fold change /veh SRD5A1 (11742802_a_at) / RFU TPSAB1 /// TPSB2 (11721975_s_at) / Fold change /veh TPSAB1 /// TPSB2 (11721975_s_at) / RFU GSTM3 (11746129_a_at) / Fold change /veh GSTM3 (11746129_a_at) / RFU IL23R (11737362_x_at) / Fold change /veh IL23R (11737362_x_at) / RFU TMEM51 (11727254_a_at) / Fold change /veh TMEM51 (11727254_a_at) / RFU PIWIL2 (11732686_x_at) / Fold change /veh PIWIL2 (11732686_x_at) / RFU ORM1 (11744905_x_at) / Fold change /veh ORM1 (11744905_x_at) / RFU CCDC152 (11743942_at) / Fold change /veh CCDC152 (11743942_at) / RFU ECM1 (11717891_a_at) / Fold change /veh ECM1 (11717891_a_at) / RFU IL23R (11748794_a_at) / Fold change /veh IL23R (11748794_a_at) / RFU TNFAIP8L3 (11732012_x_at) / Fold change /veh TNFAIP8L3 (11732012_x_at) / RFU MBOAT4 (11741988_at) / Fold change /veh MBOAT4 (11741988_at) / RFU 11764193_at / Fold change /veh 11764193_at / RFU TMEM53 (11763286_at) / Fold change /veh TMEM53 (11763286_at) / RFU MAGEB2 (11727129_at) / Fold change /veh MAGEB2 (11727129_at) / RFU TMEM200A (11744735_a_at) / Fold change /veh TMEM200A (11744735_a_at) / RFU CCDC152 (11751479_a_at) / Fold change /veh CCDC152 (11751479_a_at) / RFU FAM211A (11726209_a_at) / Fold change /veh FAM211A (11726209_a_at) / RFU RGS16 (11746705_a_at) / Fold change /veh RGS16 (11746705_a_at) / RFU VCAN (11755009_s_at) / Fold change /veh VCAN (11755009_s_at) / RFU RHOB (11743442_s_at) / Fold change /veh RHOB (11743442_s_at) / RFU RGS16 (11720943_a_at) / Fold change /veh RGS16 (11720943_a_at) / RFU RGS16 (11720944_at) / Fold change /veh RGS16 (11720944_at) / RFU, VPS4B / Fold change vs veh, VPS4B / RFU, CREB1 / Fold change vs veh, CREB1 / RFU, DNAJC13 / Fold change vs veh, DNAJC13 / RFU, GNAQ / Fold change vs veh, GNAQ / RFU, CDK5R1 / Fold change vs veh, CDK5R1 / RFU, ZRANB3 / Fold change vs veh, ZRANB3 / RFU, CUL4A / Fold change vs veh, CUL4A / RFU, CCNY / Fold change vs veh, CCNY / RFU, UFL1 / Fold change vs veh, UFL1 / RFU, COG3 / Fold change vs veh, COG3 / RFU, DIAPH2 / Fold change vs veh, DIAPH2 / RFU, SKA2 / Fold change vs veh, SKA2 / RFU, AFF3 / Fold change vs veh, AFF3 / RFU, LMF1 / Fold change vs veh, LMF1 / RFU, IPO11 / Fold change vs veh, IPO11 / RFU, DFFB / Fold change vs veh, DFFB / RFU, FOXP1 / Fold change vs veh, FOXP1 / RFU, CARD8 / Fold change vs veh, CARD8 / RFU, STRN3 / Fold change vs veh, STRN3 / RFU, ADK / Fold change vs veh, ADK / RFU, RASSF2 / Fold change vs veh, RASSF2 / RFU, WIPF1 / Fold change vs veh, WIPF1 / RFU, LARP1B / Fold change vs veh, LARP1B / RFU, RASA1 / Fold change vs veh, RASA1 / RFU, RB1 / Fold change vs veh, RB1 / RFU, PPFIA1 / Fold change vs veh, PPFIA1 / RFU, MAT2A / Fold change vs veh, MAT2A / RFU, CCT5 / Fold change vs veh, CCT5 / RFU, WDR92 / Fold change vs veh, WDR92 / RFU, CUX1 / Fold change vs veh, CUX1 / RFU, TTC7A / Fold change vs veh, TTC7A / RFU, TMEM135 / Fold change vs veh, TMEM135 / RFU, DEPTOR / Fold change vs veh, DEPTOR / RFU, CPM / Fold change vs veh, CPM / RFU, DNAJB6 / Fold change vs veh, DNAJB6 / RFU, CACNA2D3 / Fold change vs veh, CACNA2D3 / RFU, DTX4 / Fold change vs veh, DTX4 / RFU, TFCP2 / Fold change vs veh, TFCP2 / RFU, GMCL1 /// GMCL1P1 / Fold change vs veh, GMCL1 /// GMCL1P1 / RFU, AEBP2 / Fold change vs veh, AEBP2 / RFU, SNHG1 /// SNORD22 /// SNORD25 /// SNORD26 /// SNORD27 /// SNORD28 /// SNORD29 /// SNORD31 / Fold change vs veh, SNHG1 /// SNORD22 /// SNORD25 /// SNORD26 /// SNORD27 /// SNORD28 /// SNORD29 /// SNORD31 / Fold change (Aza/veh), C12orf56 (ProbeSet 11735607_a_at) / Fold change (ACY-1035/veh), C12orf56 (ProbeSet 11735607_a_at) / Fold change (Aza/veh), FGFR1OP (ProbeSet 11751329_s_at) / Fold change (ACY-1035/veh), FGFR1OP (ProbeSet 11751329_s_at) / Fold change (Aza/veh), VPS36 (ProbeSet 11739960_a_at) / Fold change (ACY-1035/veh), VPS36 (ProbeSet 11739960_a_at) / RFU SYPL1 (11715823_x_at) / Fold change /veh SYPL1 (11715823_x_at) / RFU IGFBP7 (11715501_s_at) / Fold change /veh IGFBP7 (11715501_s_at) / RFU REEP3 (11722064_at) / Fold change /veh REEP3 (11722064_at) / RFU IGLL1 (11728026_x_at) / Fold change /veh IGLL1 (11728026_x_at): dose or concentration left out as unconfirmed
Conditions: MV-4-11 cells, 48 hours

With `Nc1ncn([C@@H]2O[C@H](CO)[C@@H](O)[C@H]2O)c(=O)n1` [azacitidine] the “Fold change /veh CDHR5 (11726645_a_at)” value was 1.19.
